Laboratory results: patent US5094723A, “Separation of m-xylene from p-xylene or o-xylene by extractive distillation with alcohols” (priority 1991, dated 1992)

Assays:
Type in all cases: physicochemical
[1] = Relative volatility, separation of p-xylene from m-xylene, vapor-liquid equilibrium still; conditions: for effectiveness in bringing m-xylene out as the overhead from p-xylene: alcohols; for Relative Volatility: vapor-liquid equilibrium still
Excerpt: The data in Table 5 was obtained in a vapor-liquid equilibrium still.
Twenty grams of m-xylene, 60 grams of p-xylene, 30 grams of cyclododecanol and 15 grams of benzyl alcohol were charged to the vapor-liquid equilibrium still and refluxed for five hours.
Twenty grams of m-xylene, 60 grams of p-xylene, 30 grams of cyclododecanol and 15 grams of diisobutyl carbinol were charged to the vapor-liquid equilibrium still and refluxed for four hours.

[2] = Relative volatility, separation of m-xylene from o-xylene, vapor-liquid equilibrium still; conditions: for effectiveness in separation of m-xylene from o-xylene: in words
Experimental: The data in Table 2 was obtained in a vapor-liquid equilibrium still.
Ten grams of m-xylene, 30 grams of o-xylene and 20 grams of cyclododecanol were charged to a vapor-liquid equilibrium still and refluxed for three hours.
Ten grams of m-xylene, 30 grams of o-xylene, 20 grams of cyclododecanol and ten grams of diisobutyl carbinol were charged to the vapor-liquid equilibrium still and refluxed for 14 hours.

[3] = Extractive distillation run in glass perforated plate rectification column, m-xylene from o-xylene; conditions: for Relative Volatility: m-xylene from o-xylene, 7.3 theoretical plates, Fenske equation
Experimental: It yielded a relative volatility of 1.31 after one hour and 1.37 after two hours of continuous operation.
225 grams of m-xylene and 75 grams of o-xylene were placed in the stillpot of a glass perforated plate rectification column containing 7.3 theoretical plates, and heated. When refluxing began, an extractive agent comprising cyclododecanol was pumped into the column at a rate of 15 ml/min. The temperature of the extractive agent as it entered the column was 95° C. After establishing the feed rate of the extractive agent, the heat input to the column was adjusted to give a total reflux rate of 40 ml/min. After one hour of operation, overhead and bottoms samples of approximately two ml. were collected and analysed by gas chromatography. The overhead analysis was 95.5% m-xylene, 4.5% o-xylene and the bottoms analysis was 75% m-xylene, 25% o-xylene. Using these compositions in the Fenske equation, with the number of theoretical plates in the column being 7.3, gave an average relative volatility of 1.31 for each theoretical plate. After a total of two hours of continuous operation, samples of overhead and bottoms were again taken and analysed. The overhead analysis was 96.5% m-xylene, 3.5% o-xylene; the bottoms analysis was 73.6% m-xylene, 26.4% o-xylene which is a relative volatility of 1.37.

[4] = * brings the m-xylene out as overhead (m-xylene to p-xylene)
[5] = m-xylene to o-xylene, effective agents (alone or mixed as labelled), vapor-liquid equilibrium still
[6] = p-xylene from m-xylene, in words
[7] = m-xylene from o-xylene, ineffective agents when mixed with cyclododecanol

CCCCCCCCCCO [1-Decanol]
effectiveness in bringing m-xylene out as the overhead from p-xylene ([1]; in words): effective in bringing m-xylene out as the overhead | effectiveness in separation of m-xylene from o-xylene ([2]; alcohols): effective

CCCCCCCCCCCCO [1-Dodecanol]
Relative Volatility [1, 4]: 1.11 | effectiveness in bringing m-xylene out as the overhead from p-xylene ([1]; in words): effective in bringing m-xylene out as the overhead | effectiveness in separation of m-xylene from o-xylene ([2]; alcohols): effective | Relative Volatility [2, 5]: 1.31

CCCCCCCCCO [1-Nonanol]
Relative Volatility [1, 4]: 1.14 | effectiveness in bringing m-xylene out as the overhead from p-xylene ([1]; in words): effective in bringing m-xylene out as the overhead | effectiveness in separation of m-xylene from o-xylene ([2]; alcohols): effective

CCCCCCCCO [1-Octanol]
enhancement of relative volatility when mixed with cyclododecanol [1, 6]: enhance the relative volatility | effectiveness in separation of m-xylene from o-xylene ([2]; alcohols): effective | Relative Volatility [2, 5]: 1.38

CCCCC(CC)COC(C)=O (stereo not drawn) [2-Ethyl hexyl acetate]
Relative Volatility [2, 7]: 1.22

CCCCC(CC)CO (stereo not drawn) [2-Ethyl-1-hexanol]
Relative Volatility [2, 7]: 1.29

Cc1ccccc1[N+](=O)[O-] [2-Nitrotouene]
Relative Volatility [2, 7]: 1.25

CCCCCCC(C)O (stereo not drawn) [2-Octanol]
effectiveness in separation of m-xylene from o-xylene ([2]; alcohols): effective | Relative Volatility [2, 5]: 1.30

OCc1ccccc1 [Benzyl alcohol]
Relative Volatility [1, 4]: 1.19 | effectiveness in bringing m-xylene out as the overhead from p-xylene ([1]; in words): effective in bringing m-xylene out as the overhead | enhancement of relative volatility when mixed with cyclododecanol [1, 6]: enhance the relative volatility

O=C(OCc1ccccc1)c1ccccc1 [Benzyl benzoate]
Relative Volatility [2, 7]: 1.0

CCCCOC(=O)CCC [Butyl butyrate]
Relative Volatility [2]: 1.26

OC1CCCCCCCCCCC1 [Cyclododecanol]
xylene brought out as overhead product [1, 6]: brings out the p-xylene as overhead product | Relative Volatility ([1]; p-xylene to m-xylene (no asterisk)): 1.11 | Weight % m-Xylene ([3]; bottoms, 1 hour): 75% | Weight % o-Xylene ([3]; bottoms, 1 hour): 25% | Weight % m-Xylene ([3]; bottoms, 2 hours): 73.6% | Weight % o-Xylene ([3]; bottoms, 2 hours): 26.4% | Relative Volatility ([3]; 1 hour): 1.31 | Relative Volatility ([3]; 2 hours): 1.37 | Weight % m-Xylene ([3]; overhead, 1 hour): 95.5% | Weight % o-Xylene ([3]; overhead, 1 hour): 4.5% | Weight % m-Xylene ([3]; overhead, 2 hours): 96.5% | Weight % o-Xylene ([3]; overhead, 2 hours): 3.5% | effectiveness in separation of m-xylene from o-xylene ([2]; alcohols): effective | Relative Volatility [2, 5]: 1.37 | liquid composition, m-xylene ([2]; vapor-liquid equilibrium still): 23.6% | liquid composition, o-xylene ([2]; vapor-liquid equilibrium still): 76.4% | vapor composition, m-xylene ([2]; vapor-liquid equilibrium still): 29.8% | vapor composition, o-xylene ([2]; vapor-liquid equilibrium still): 70.2%

CCOC(=O)CC(=O)OCC [Diethyl malonate]
Relative Volatility [2, 7]: 1.23

CCCCCCOCCOCCO [Diethylene glycol hexyl ether]
Relative Volatility [2, 7]: 0.7

CC(C)CC(O)CC(C)C [Diisobutyl carbinol]
Relative Volatility [1, 4]: 1.23 | effectiveness in bringing m-xylene out as the overhead from p-xylene ([1]; in words): effective in bringing m-xylene out as the overhead | enhancement of relative volatility when mixed with cyclododecanol [1, 6]: enhance the relative volatility | effectiveness in separation of m-xylene from o-xylene ([2]; alcohols): effective | Relative Volatility [2, 5]: 1.27

CCCCOCCOC(C)=O [Ethylene glycol butyl ether acetate]
enhancement of relative volatility when mixed with cyclododecanol [1, 6]: enhance the relative volatility | Relative Volatility [2, 7]: 1.1

CC(C)CCCCCCCO [Isodecanol (ASHLAND), Isodecanol]
Relative Volatility [2, 5]: 1.27

CC(C)CCCCCCCO [Isodecanol (EXXON), Isodecanol]
Relative Volatility [2, 5]: 1.18

CC(C)CCCCCCCO [Isodecanol]
effectiveness in bringing m-xylene out as the overhead from p-xylene ([1]; in words): effective in bringing m-xylene out as the overhead | effectiveness in separation of m-xylene from o-xylene ([2]; alcohols): effective

CC(C)CCCCCCO [Isononyl alcohol (EXXON), Isononyl alcohol]
effectiveness in separation of m-xylene from o-xylene ([2]; alcohols): effective | Relative Volatility [2, 5]: 1.22

CC(C)CCCCCO [Isooctanol (U.C.), Isooctanol]
Relative Volatility [2, 5]: 1.27

COC(=O)c1ccccc1 [Methyl benzoate]
Relative Volatility [2, 7]: 1.0

OCCc1ccccc1 [Phenethyl alcohol]
enhancement of relative volatility when mixed with cyclododecanol [1, 6]: enhance the relative volatility | Relative Volatility [2, 7]: 1.29

CCC(=O)c1ccccc1 [Propiophenone]
enhancement of relative volatility when mixed with cyclododecanol [1, 6]: enhance the relative volatility | Relative Volatility [2, 7]: 0.8

CC1COC(=O)O1 (stereo not drawn) [Propylene carbonate]
Relative Volatility [2, 7]: 1.07

CCCCCCCCCCCO [Undecyl alcohol]
Relative Volatility [1, 4]: 1.14 | effectiveness in bringing m-xylene out as the overhead from p-xylene ([1]; in words): effective in bringing m-xylene out as the overhead | effectiveness in separation of m-xylene from o-xylene ([2]; alcohols): effective | Relative Volatility [2, 5]: 1.40

CC(=O)c1ccccc1 [acetophenone]
effectiveness in separation of m-xylene from o-xylene ([2]; mixed with cyclododecanol): effective relative volatilities | effectiveness in separation of m-xylene from o-xylene ([2]; used alone): relatively ineffective

CCCCOCCOCCO [diethylene glycol butyl ether]
enhancement of relative volatility when mixed with cyclododecanol [1, 6]: enhance the relative volatility | effectiveness in separation of m-xylene from o-xylene ([2]; mixed with cyclododecanol): effective relative volatilities | effectiveness in separation of m-xylene from o-xylene ([2]; used alone): relatively ineffective

CCOCCOCCO [diethylene glycol ethyl ether]
effectiveness in separation of m-xylene from o-xylene ([2]; mixed with cyclododecanol): effective relative volatilities | effectiveness in separation of m-xylene from o-xylene ([2]; used alone): relatively ineffective

CN(C)C=O [dimethylformamide]
enhancement of relative volatility when mixed with cyclododecanol [1, 6]: enhance the relative volatility

C[S+](C)[O-] [dimethylsulfoxide]
enhancement of relative volatility when mixed with cyclododecanol [1, 6]: enhance the relative volatility | effectiveness in separation of m-xylene from o-xylene ([2]; mixed with cyclododecanol): effective relative volatilities | effectiveness in separation of m-xylene from o-xylene ([2]; used alone): relatively ineffective

CCOC(=O)c1ccccc1O [ethyl salicylate]
effectiveness in separation of m-xylene from o-xylene ([2]; mixed with cyclododecanol): effective relative volatilities | effectiveness in separation of m-xylene from o-xylene ([2]; used alone): relatively ineffective

CC(C)CCCCCO [isooctanol]
effectiveness in separation of m-xylene from o-xylene ([2]; alcohols): effective

COC(=O)c1ccccc1O [methyl salicylate]
effectiveness in separation of m-xylene from o-xylene ([2]; mixed with cyclododecanol): effective relative volatilities | effectiveness in separation of m-xylene from o-xylene ([2]; used alone): relatively ineffective

CC(=O)Oc1ccccc1 [phenyl acetate]
effectiveness in separation of m-xylene from o-xylene ([2]; mixed with cyclododecanol): effective relative volatilities | effectiveness in separation of m-xylene from o-xylene ([2]; used alone): relatively ineffective

O=S1(=O)CCCC1 [sulfolane]
effectiveness in separation of m-xylene from o-xylene ([2]; mixed with cyclododecanol): effective relative volatilities | effectiveness in separation of m-xylene from o-xylene ([2]; used alone): relatively ineffective

OCC1CCCO1 (stereo not drawn) [tetrahydrofurfuryl alcohol]
enhancement of relative volatility when mixed with cyclododecanol [1, 6]: enhance the relative volatility
